According to US6914045B2, “Glycopeptide antibiotics” (Wyeth Holdings Corporation, priority 2001, dated 2005):
Square brackets hold non-standard residues; d marks the D form. Peptide text beside a SMILES is read from it. * marks the point of attachment. ξ: configuration not given here. ξEnduracididine(βξ-OH,4'ξ) = N=C1NCC(C(O)C(N)C(=O)O)N1; X2 = OCC1OC(OC2C(CO)OC(*)C(O)C2O)C(O)C(O)C1O

Assays:
Test in all cases: in vitro antibacterial evaluation, MIC by broth dilution
Type in all cases: cell-based
Enterococcus sp. = conditions: broth dilution, 18 hours at 35° C.
How it was run: (§1)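 Following National Committee for Clinical Laboratory Standards recommendations (M7-A2), susceptibility was measured by dilution in Muller-Hinton II […]. Bacteria were seeded at 5×10^5 CFU/mL against compound concentrations from 64 down to 0.06 μg/mL.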

Escherichia coli = conditions: 18 hours at 35° C.
How it was run: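 Test organisms, which included recent clinical isolates resistant to methicillin, penicillin and/or vancomycin, were inoculated at 5×10^5 CFU/mL into Muller-Hinton II […] containing antibiotic at 64-0.06 μg/mL. Minimum inhibitory concentrations were then read as the lowest level inhibiting growth.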

Staphylococcus sp. = conditions: broth dilution, 18 hours at 35° C.
How it was run: as §1

Streptococcus sp. = conditions: broth dilution, 18 hours at 35° C.
How it was run: as §1

N=C1NCC(C(O)C2NC(=O)C(Cc3ccc(OC4OC(CO)C(OC5OC(CO)C(O)C(O)C5O)C(O)C4O)cc3)NC(=O)C(Cc3ccccc3)NC(=O)CNC(=O)C(CO)NC(=O)C(C(O)C3CNC(=N)N3)NC2=O)N1 (stereo not drawn) [Example 296, Cyclo[glycylphenylalanyl-O-(4-O-hexopyranosylhexopyranosyl)tyrosyl-3-(2-iminoimidazolidin-4-yl)seryl-3-(2-iminoimidazolidin-4-yl)serylseryl]] (cyclo(GFY(X2)[ξEnduracididine(βξ-OH,4'ξ)][ξEnduracididine(βξ-OH,4'ξ)]S); configuration not given here)
128 mg/L: MIC Enterococcus avium (GC 4558) (Enterococcus sp.; Enterococcus avium (GC 4558)) | MIC Enterococcus faecium (GC 4557) (Enterococcus sp.; Enterococcus faecium (GC 4557)) | MIC Enterococcus faecium (GC 4557) (Enterococcus sp.; strain GC 4557) | MIC Enterococcus avium (GC 4558) (Enterococcus sp.; strain GC 4558) | MIC Streptococcus pneumoniae (GC 1894) (Streptococcus sp.; strain GC 1894)
>128 mg/L: MIC Enterococcus faecalis (ATCC 29212) (Enterococcus sp.; Enterococcus faecalis (ATCC 29212)) | MIC Enterococcus faecalis (GC 4553) (Enterococcus sp.; Enterococcus faecalis (GC 4553)) | MIC Enterococcus faecalis (GC 4554) (Enterococcus sp.; Enterococcus faecalis (GC 4554)) | MIC Enterococcus faecalis (GC 6189) (Enterococcus sp.; Enterococcus faecalis (GC 6189)) | MIC Enterococcus faecium (GC 2243) (Enterococcus sp.; Enterococcus faecium (GC 2243)) | MIC Enterococcus faecium (GC 4556) (Enterococcus sp.; Enterococcus faecium (GC 4556)) | MIC Enterococcus faecalis (ATCC 29212) (Enterococcus sp.; strain ATCC 29212) | MIC Enterococcus faecalis (GC 2242) (Enterococcus sp.; strain GC 2242) | MIC Enterococcus faecium (GC 2243) (Enterococcus sp.; strain GC 2243) | MIC Enterococcus faecalis (GC 2691) (Enterococcus sp.; strain GC 2691) | MIC Enterococcus faecalis (GC 3059) (Enterococcus sp.; strain GC 3059) | MIC Enterococcus faecalis (GC 4552) (Enterococcus sp.; strain GC 4552) | MIC Enterococcus faecalis (GC 4553) (Enterococcus sp.; strain GC 4553) | MIC Enterococcus faecalis (GC 4554) (Enterococcus sp.; strain GC 4554) | MIC Enterococcus faecium (GC 4556) (Enterococcus sp.; strain GC 4556) | MIC Enterococcus faecalis (GC 6189) (Enterococcus sp.; strain GC 6189) | MIC Escherichia coli (ATCC 25922) (Escherichia coli; Escherichia coli (ATCC 25922)) | MIC Escherichia coli (GC 4559) (Escherichia coli; Escherichia coli (GC 4559)) | MIC Escherichia coli (GC 4560) (Escherichia coli; Escherichia coli (GC 4560)) | MIC Coagulase Negative Staphylococcus (GC 4547) (Staphylococcus sp.) | MIC Coagulase Negative Staphylococcus (GC 4548) (Staphylococcus sp.) | MIC Coagulase Negative Staphylococcus (GC 4549) (Staphylococcus sp.) | MIC Coagulase Negative Staphylococcus (GC 4551) (Staphylococcus sp.) | MIC Staphylococcus aureus (ATCC 29213) (Staphylococcus sp.) | MIC Staphylococcus aureus (GC 1131) (Staphylococcus sp.) | MIC Staphylococcus aureus (GC 3051) (Staphylococcus sp.) | MIC Staphylococcus aureus (GC 3053) (Staphylococcus sp.) | MIC Staphylococcus aureus (GC 4541) (Staphylococcus sp.) | MIC Staphylococcus aureus (GC 4542) (Staphylococcus sp.) | MIC Staphylococcus aureus (GC 4544) (Staphylococcus sp.) | MIC Staphylococcus aureus (GC 4545) (Staphylococcus sp.) | MIC Staphylococcus aureus-SMITH (GC 4543) (Staphylococcus sp.) | MIC Staphylococcus haemolyticus (GC 4546) (Staphylococcus sp.) | MIC Staphylococcus aureus (ATCC 29213) (Staphylococcus sp.; strain ATCC 29213) | MIC Staphylococcus aureus (GC 1131) (Staphylococcus sp.; strain GC 1131) | MIC Staphylococcus aureus (GC 3051) (Staphylococcus sp.; strain GC 3051) | MIC Staphylococcus aureus (GC 3053) (Staphylococcus sp.; strain GC 3053) | MIC Staphylococcus aureus (GC 4541) (Staphylococcus sp.; strain GC 4541) | MIC Staphylococcus aureus (GC 4542) (Staphylococcus sp.; strain GC 4542) | MIC Staphylococcus aureus (GC 4544) (Staphylococcus sp.; strain GC 4544) | MIC Staphylococcus aureus (GC 4545) (Staphylococcus sp.; strain GC 4545) | MIC Staphylococcus haemolyticus (GC 4546) (Staphylococcus sp.; strain GC 4546) | MIC Coagulase Negative Staphylococcus (GC 4547) (Staphylococcus sp.; strain GC 4547) | MIC Coagulase Negative Staphylococcus (GC 4548) (Staphylococcus sp.; strain GC 4548) | MIC Coagulase Negative Staphylococcus (GC 4549) (Staphylococcus sp.; strain GC 4549) | MIC Coagulase Negative Staphylococcus (GC 4551) (Staphylococcus sp.; strain GC 4551) | MIC Staphylococcus aureus-SMITH (GC 4543) (Staphylococcus sp.; strain SMITH GC 4543) | MIC Streptococcus pneumoniae (ATCC 6301) (Streptococcus sp.; strain ATCC 6301) | MIC Streptococcus pyogenes (GC 4563) (Streptococcus sp.; strain GC 4563) | MIC Streptococcus agalactiae (GC 4564) (Streptococcus sp.; strain GC 4564) | MIC Streptococcus pneumoniae (GC 4565) (Streptococcus sp.; strain GC 4565)
